Reference: patent publication US20100221763A1, “Specific Acceptors for Transferases to Saccharides and Method for Obtaining and Using Same” (Health Research, Inc, priority 2005, published 2010)

What was measured:
[1] = test system: β-GlcNAc:β1,4Gal-T of breast tumor BC9400; assay: β-GlcNAc:β1,4Gal-T assay, breast tumor extract; assay type: biochemical, human; settings: other acceptors, 1 mg protein of the tissue extract
Protocol: (§1) Colon tumor tissue (CC9338) and breast tumor tissue (BC9400) were obtained during surgical procedures at Roswell Park Cancer Institute and stored frozen within 1 h at −70° C. The tissues were homogenized at 4° C. with 4 volumes of 0.1M Tris Maleate […] 0.1% NaN3 using kinematica. After adjusting the concentration of Triton X-100 to 2%, these homogenates were mixed in the cold room for 1 h using Speci-Mix (Thermolyne) and then centrifuged at 20,000 g for 1 h at 4° C. The clear fat-free supernatant was stored frozen at −20° C. until use. Aliquots of 10 μL from this extract were used in assays run in duplicates. Glycosyltransferase activity in cell lysate was determined by mixing the lysates with acceptor and radiolabeled donor (monosaccharide) under the reaction conditions detailed below, followed by separation of un-reacted donor from the radioactive product using anionic or hydrophobic chromatography. In all cases, the radioactive content of isolated products was determined by using 3a70 scintillation cocktail (Research Products International, Mount Prospect, Ill.) and a Beckman LS6500 scintillation counter. Controls for each assay contained the reaction mixture with everything except the acceptor. All assays were run in duplicate.
(§2) The acceptors used for measuring the glycosyltransferase and sulfotransferase activities are given in Table I. The following are the conditions for individual enzymatic assays. Reaction temperature in all cases was 37° C. α2,3- and α2,6 sialytransferase (ST) assay reactions proceeded for 2 h in a mixture containing 100 mM sodium cacodylate buffer (pH 6.0), 7.5 mM acceptor, CMP-[9-^3H]NeuAc (typically 0.2 μCi) and 10 μl cell extract in a total volume of 20 μl [Chandrasekaran et al., 1995]. βGlcNAc:β1,4Gal-T and αGalNAc:β1,3Gal-T assay mixtures in duplicate contained 0.1M Hepes-NaOH pH 7.0, 7 mM ATP, 20 mM Mn acetate, 1 mM UDP-Gal, UDP [^14C]Gal (0.05 μCi; 327mCi/mmol; Amersham), 0.5 mM acceptor (unless otherwise stated) and the enzyme in a total volume of 20 μL. It was incubated for 4 h [Chandrasekaran et al., 2001]. βGlcNAc:β1,4GalNAc-T assay mixtures in duplicate contained 0.1M Hepes-NaOH pH 7.0, 7 mM ATP, 20 mM Mn acetate. UDP [^3H] GalNAc (0.20 μCi; 7.8 Ci/mmol: New England Nuclear Corp.) 7.5 mM acceptor (unless otherwise stated) and the enzyme in a total volume of 20 μL and incubated for 4 h [Chandrasekaran et al., 2001].
(§3) Dowex-1-C1 or Sep-Pak C18 cartridges were used to isolate radiolabeled product from the reaction mixture. For GalT, GalNAc-T and FT assays, the incubation mixture was diluted with 1 ml water and passed through a 1 ml Dowex-1-C1 column [Chandrasekaran et al., 1996; Chandrasekaran et al., 2001]. The column was washed twice with 1 ml of water. The breakthrough and the water wash contained the [^14C]-galactosylated or [^14C]-fucosylated products formed with neutral acceptors. 3 ml of 0.1M NaCl was used to obtain [^14C]-fucosylated products from sialylated acceptors after water elution. For sialytransferase assays, the radioactive products from benzylglycosides were separated by hydrophobic chromatography on Sep-Pak C18 cartridge (Waters, Milford, Mass.), and elution of the product was done with 3 ml methanol [Palcic et al., 1988]. For sulfotransferase assays, elution of the [^35S]-sulfated compound from Dowex-1-C1 column was achieved by 3 ml of 0.2M NaCl [Chandrasekaran et al., 2004].

[2] = test system: β-GlcNAc:β1,4Gal-T of colon tumor CC9338; assay: β-GlcNAc:β1,4Gal-T assay, colon tumor extract; assay type: biochemical, human; settings: other acceptors, 1 mg protein of the tissue extract
Protocol: as §1, §2, §3

[3] = test system: β-GlcNAc:β1,4GalNAc-T of colon tumor CC9338; assay: β-GlcNAc:β1,4GalNAc-T assay, colon tumor extract; assay type: biochemical, human; settings: other acceptors, 1 mg protein of the tissue extract
Protocol: as §1, §2, §3

[4] = molecular target: T1, FTVI of breast tumor BC9400 (Homo sapiens, UniProt P51993); assay: FTVI assay, breast tumor extract; assay type: biochemical; settings: 1 mg protein of the tissue extract
T1 construct: from tissue; host or cells: breast tumor tissue BC9400, Triton X-100 extract
Protocol: as §1, with “duplicate. […]” for “duplicate.”

[5] = test system: β-GlcNAc:β1,4GalNAc-T of breast tumor BC9400; assay: β-GlcNAc:β1,4GalNAc-T assay, breast tumor extract; assay type: biochemical, human; settings: other acceptors, 1 mg protein of the tissue extract
Protocol: as §1, §2, §3

[6] = molecular target: T2, FTVI of colon tumor CC9338 (Homo sapiens, UniProt P51993); assay: FTVI assay, colon tumor extract; assay type: biochemical; settings: 1 mg protein of the tissue extract
T2 construct: from tissue; host or cells: colon tumor tissue CC9338, Triton X-100 extract
Protocol: as §1, with “duplicate. […]” for “duplicate.”

T1 sequence (P51993 whole entry): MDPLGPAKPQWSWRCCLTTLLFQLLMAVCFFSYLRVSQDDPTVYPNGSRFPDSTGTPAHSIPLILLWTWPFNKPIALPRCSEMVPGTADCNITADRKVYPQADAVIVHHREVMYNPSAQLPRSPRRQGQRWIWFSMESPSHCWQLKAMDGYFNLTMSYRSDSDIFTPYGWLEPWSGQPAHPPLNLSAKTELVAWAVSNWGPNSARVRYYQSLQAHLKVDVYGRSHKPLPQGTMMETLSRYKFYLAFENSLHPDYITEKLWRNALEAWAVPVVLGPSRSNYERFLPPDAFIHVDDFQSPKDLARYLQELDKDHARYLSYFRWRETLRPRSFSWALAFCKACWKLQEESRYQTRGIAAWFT
T2 sequence (P51993 whole entry): as above

FTVI activity: incorporation of radioactive sugar [4]: 0.3 CPM × 10^−3
FTVI activity: incorporation of radioactive sugar [6]: 139.1 CPM × 10^−3
Compound: CC(=O)N[C@H]1[C@H](OCc2ccccc2)O[C@H](CO)[C@@H](O[C@@H]2O[C@H](CO)[C@@H](O)[C@H](O)[C@H]2NC(C)=O)[C@@H]1O [GlcNAcβ1,4GlcNAcβ-O-Bn]
a) β-GlcNAc:β1,4Gal-T activity: incorporation of radioactive sugar [1]: 436.7 CPM × 10^−3
a) β-GlcNAc:β1,4Gal-T activity: incorporation of radioactive sugar [2]: 307.6 CPM × 10^−3
b) β-GlcNAc:β1,4GalNAc-T activity: incorporation of radioactive sugar [3]: 18.9 CPM × 10^−3
b) β-GlcNAc:β1,4GalNAc-T activity: incorporation of radioactive sugar [5]: 57.8 CPM × 10^−3
